Reference: ChEMBL document CHEMBL3046941, “Synthesis of novel isoxazolines via 1,3-dipolar cycloaddition and evaluation of anti-stress activity” (2011)

Tests used:
Format in all cases: functional
Rattus norvegicus [1] = assay: Antistress activity in Rattus norvegicus Sprague-Dawley (rat) assessed as inhibition of acute stress-induced adrenal hypertrophy measured as adrenal gland weight per 100 g of body weight at 40 mg/kg, po (reference value: 10.20 +/- 0.69 mg)
Rattus norvegicus [2] = assay: Antistress activity in Rattus norvegicus Sprague-Dawley (rat) assessed as inhibition of acute stress-induced increase in corticosterone level at 40 mg/kg, po (reference value: 465.7 +/- 15.77 ng/ml)
Rattus norvegicus [3] = assay: Antistress activity in Rattus norvegicus Sprague-Dawley (rat) assessed as inhibition of acute stress-induced plasma creatinine kinase activity at 40 mg/kg, po (reference value: 1115 +/- 29.43 IU/dl)
Rattus norvegicus [4] = assay: Antistress activity in Rattus norvegicus Sprague-Dawley (rat) assessed as inhibition of acute stress-induced hyperglycemia measured as glucose level at 40 mg/kg, po (reference value: 134.7 +/- 4.68 mg/dl)

Row | Compound | Activity (Rattus norvegicus [1]) [mg] | Activity (Rattus norvegicus [2]) [ng/mL] | Activity (Rattus norvegicus [3]) [IU/dl] | Activity (Rattus norvegicus [4]) [mg/dL]
1 | COc1cc(CC2CC(c3cccc4ccccc34)=NO2)ccc1OCc1ccccc1 (stereo unspecified) | 9.6 | 444.7 | 994.5 | 116.3
2 | COc1cc(CC2CC(c3cccc4ccccc34)=NO2)ccc1OCCN1CCCC1 (stereo unspecified) | 10.58 | 421 | 1074 | 125
3 | COc1cc(CC2CC(c3cccc4ccccc34)=NO2)ccc1OCCN1CCCCC1 (stereo unspecified) | 7.23 | 282.5 | 603.7 | 78.17
4 | COc1ccc(C2=NOC(Cc3ccc(O)c(OC)c3)C2)c(OC)c1 (stereo unspecified) | 9.31 | 432.2 | 1004 | 112
5 | COc1ccc(C2=NOC(Cc3ccc(OC(C)=O)c(OC)c3)C2)c(OC)c1 (stereo unspecified) | 7.01 | 364.2 | 766.71 | 107.2
6 | COc1ccc(C2=NOC(Cc3ccc(OC)c(OC)c3)C2)c(OC)c1 (stereo unspecified) | 9.63 | 446 | 1092 | 122
7 | CCOc1ccc(CC2CC(c3ccc(OC)cc3OC)=NO2)cc1OC (stereo unspecified) | 7.82 | 275.5 | 729.7 | 93
8 | COc1ccc(C2=NOC(Cc3ccc(OCc4ccccc4)c(OC)c3)C2)c(OC)c1 (stereo unspecified) | 8.01 | 354.8 | 664.3 | 80.5
9 | COc1ccc(C2=NOC(Cc3ccc(OCCN4CCCC4)c(OC)c3)C2)c(OC)c1 (stereo unspecified) | 9.82 | 429.8 | 934.7 | 127
10 | COc1ccc(C2=NOC(Cc3ccc(OCCN4CCCCC4)c(OC)c3)C2)c(OC)c1 (stereo unspecified) | 7.6 | 320 | 733.8 | 101.7
11 | COc1cc(CC2CC(c3cccc4ccccc34)=NO2)ccc1O (stereo unspecified) | 9.86 | 417.2 | 998.5 | 86.24
12 | COc1cc(CC2CC(c3cccc4ccccc34)=NO2)ccc1OC(C)=O (stereo unspecified) | 7.77 | 311.8 | 673 | 74.67
13 | COc1ccc(CC2CC(c3cccc4ccccc34)=NO2)cc1OC (stereo unspecified) | 7.54 | 293.5 | 590 | 109.51
14 | CCOc1ccc(CC2CC(c3cccc4ccccc34)=NO2)cc1OC (stereo unspecified) | 7.89 | 292.3 | 625.7 | 72.83
